Measured values reported in patent US11696920B2, “Intelligent delivery of ingested and absorbed molecules” (IMMD SP. ZO.O, priority 2016, dated 2023).

What was measured:
liver lipid metabolism [1] = test: Serum triglycerides, DHA and carotenoid-SFA formulations, trial for 4 weeks; format: in vivo, human
liver lipid metabolism [2] = test: Serum LDL cholesterol, DHA and carotenoid-SFA formulations, trial for 4 weeks; format: in vivo, human
LDL = test: LDL-Px blood marker, DHA and carotenoid-SFA formulations, trial for 4 weeks; format: in vivo, human
Text: (§1) Since DHA itself has antioxidant and anti-inflammatory properties it was important to assess whether its formulation with carotenoids and SFA would change them. Comparison of the effects of DHA and its new formulations on blood markers of oxidative and inflammatory damage is presented in Table 7.
It is worth pointing out that the real synergetic effect may be even more profound, because in both of those carotenoid-SFA formulations only half of the dose of the control DHA was used.

[3] = test system: blood markers of oxidative and inflammatory damage; test: IOD blood marker, DHA and carotenoid-SFA formulations, trial for 4 weeks; format: in vivo, human
Text: as §1

[4] = Serum DHA pharmacokinetics after 4 weeks of supplementation with DHA formulations; details: human, in vivo
[5] = Serum EPA pharmacokinetics after 4 weeks of supplementation with DHA formulations; details: human, in vivo
[6] = publicly available trans-resveratrol formulations; cited from earlier work

SMILES | Triglycerides (liver lipid metabolism [1]; 0 w) | Triglycerides (liver lipid metabolism [1]; 4 w) | Triglycerides, % of baseline (liver lipid metabolism [1]; 4 w) | Δ Triglycerides vs 0 w (liver lipid metabolism [1]; 4 w) | LDL cholesterol (liver lipid metabolism [2]; 0 w) | LDL cholesterol (liver lipid metabolism [2]; 4 w) | Δ LDL cholesterol vs 0 w (liver lipid metabolism [2]; 4 w) | LDL-Px (LDL; 0 w) | LDL-Px (LDL; 4 w) | LDL-Px, % of baseline (LDL; 4 w) | Δ LDL-Px vs 0 w (LDL; 4 w) | IOD in MDA ([3]; 0 w) | IOD in MDA ([3]; 4 w) | IOD, % of baseline ([3]; 4 w) | Δ IOD vs 0 w ([3]; 4 w) | other results
CC(C)=CCC/C(C)=C/C=C/C(C)=C/C=C/C(C)=C/C=C/C=C(C)/C=C/C=C(C)/C=C/C=C(\C)CCC=C(C)C [Lycopene 7 mg, Lycopene] | 155 ± 12 mg/dL | 150 ± 13 mg/dL | 97% | Δ = −5 mg/dL | 158 ± 17 mg/dL | 154 ± 16 mg/dL | Δ = −4 mg/dL | 133 ± 19 ELISA × 10^3 | 115 ± 14 ELISA × 10^3 | 86% | Δ = −18 ELISA × 10^3 | 111 ± 12 µM | 79 ± 9 µM | 71% | Δ = −32 μM | Change in triglyceride concentrations (liver lipid metabolism [1]; end of the 4-week trial): no significant change; Effect on serum LDL level (liver lipid metabolism [2]; 4 weeks): did not affect level of LDL
CC/C=C\C/C=C\C/C=C\C/C=C\C/C=C\C/C=C\CCC(=O)O [DHA 500 mg, docosahexaenoic acid] | 197 ± 18 mg/dL | 184 ± 17 mg/dL | 93% | Δ = −13 mg/dL | 154 ± 16 mg/dL | 149 ± 15 mg/dL | Δ = −5 mg/dL | 700 ± 76 ELISA × 10^3 | 265 ± 27 ELISA × 10^3 | 38% | Δ = −435 ELISA × 10^3 | 165 ± 18 µM | 107 ± 11 µM | 65% | Δ = −58 μM | Reduction of serum triglycerides (liver lipid metabolism [1]; 4 weeks): 13 mg/dL; concentration at 0 weeks [4]: 106 ± 11 µg/mL; concentration at 2 weeks [4]: 134 ± 12 µg/mL; concentration at 4 weeks [4]: 108 ± 12 µg/mL; Increase in serum DHA ([4]; 2 weeks): 26%; Δ serum DHA vs 0 w ([4]; 2 weeks): Δ = +28 μg/ml; Δ serum DHA vs 0 w ([4]; 4 weeks): Δ = +2 μg/ml; Combined increase in serum EPA [5]: 11.6 µg/mL; Serum EPA ([5]; 0 weeks): 56.5 ± 6.2 µg/mL; Increase in serum EPA ([5]; 2 weeks): 21%; Serum EPA ([5]; 2 weeks): 68.1 ± 7.4 µg/mL; Δ serum EPA vs 0 w ([5]; 2 weeks): Δ = +11.6 μg/ml; Serum EPA ([5]; 4 weeks): 35.8 ± 5.3 µg/mL
Oc1ccc(/C=C/c2cc(O)cc(O)c2)cc1 [trans-resveratrol] |  |  |  |  |  |  |  |  |  |  |  |  |  |  |  | Fraction bioavailable after oral consumption [6]: 5%
